The values that follow come from patent US10561619B2, “Pharmaceutical composition comprising dutasteride and propylene glycol monolaurate and preparation method of the same” (Yuyu Pharma, Inc., priority 2015, dated 2020).

Usually solubility stands for the dissolved amount per volume that the medium holds. A low value points to little dissolved substance. As usually defined, the Solubility is how much of the substance goes into solution per volume.

In brackets after ≈: the same amount, converted by molar mass. A value given as a limit tells only on which side of the number the result lay.

Series [1] can be described thus: Evaluation of oil solubility of dutasteride. It is filed as physicochemical. Particulars: for solubility at 24 h: oil or lipid, thermodynamic from solid. On the procedure: In order to measure the solubility of dutasteride in oil, the solubility of dutasteride in glycerol tricaprylate, glycerol tricaprylate/caprate, glycerol tricaprylate/caprate/linoleate, propylene glycol dicaprylocaprate, propylene glycol dicaprate, propylene glycol dicaprylate and propylene glycol monolaurate was measured. In a 10 mL vial, a magnetic bar was placed. After 3 mL of the oil was added thereto, approximately 100 mg of dutasteride was added thereto while stirring under a room temperature (25° C.) condition, and the resultant mixture was stirred at 500 rpm or higher. After stirring for 24 hours, 1 mL of the resultant mixture was taken and separated using a centrifuge, and only a supernatant was taken to quantify an amount of dutasteride dissolved in the oil using liquid chromatography.

The nature of series [2]: Stability of dutasteride depending on oil type (degradation products). The format is physicochemical. On the procedure:
In Test Example 2, in order to identify the stability of dutasteride in oil, the oil and dutasteride are mixed at a ratio of about 10 to 1, and then a stability test is carried out under an accelerated and stress condition, and a percentage of generated unknown degradation products with respect to the active ingredient is calculated to confirm whether degradation products are generated or not.
In order to identify the stability of dutasteride in mono- and di-glyceride of caprylic/capric acid used as an oil phase of AVODART®, an existing commercially-available formulation, the stability of dutasteride was compared under the stress condition (50° C., 95% RH) and the accelerated condition (40° C., 75% RH). In the comparison test, a sample prepared by dissolving 1.0 mg of dutasteride in 10.0 mg of propylene glycol monocaprylate and stored in a transparent vial and a sample prepared by dissolving 1.0 mg of dutasteride in 10.0 mg of mono- and di-glyceride of caprylic/capric acid and stored in a transparent vial were used.

As for `C[C@]12C=CC(=O)N[C@@H]1CC[C@@H]1[C@@H]2CC[C@]2(C)[C@@H](C(=O)Nc3cc(C(F)(F)F)ccc3C(F)(F)F)CC[C@@H]12` [dutasteride, 17β-N-(2,5-bis(trifluoromethyl))phenylcarbamoyl-4-aza-5α-androst-1-en-3-one], the solubility at 24 h was found to be 840 µg/mL (≈ 1590 µM) in series [1] (glycerol tricaprylate (oil), in glycerol tricaprylate, 25° C., stirring 24 hours); 220 µg/mL (≈ 416 µM) in series [1] (glycerol tricaprylate/caprate/linoleate (oil), in glycerol tricaprylate/caprate/linoleate, 25° C., stirring 24 hours); 970 µg/mL (≈ 1840 µM) in series [1] (propylene glycol dicaprylocaprate (oil), in propylene glycol dicaprylroccaprate, 25° C., stirring 24 hours). This compound also displayed a Solubility in series [1] (in glycerol tricaprylate/caprate, 25° C., stirring 24 hours) of 810 µg/mL (≈ 1530 µM). Further, the “higher solubility in propylene glycol monolaurate compared to other tested oils” value in series [1] (propylene glycol monolaurate vs other tested oils) is recorded as ≥ 10 times. Moreover, the “percentage of degradation products with respect to dutasteride” value in series [2] (in mono- and di-glyceride of caprylic/capric acid, stress condition (50° C., 95% RH), Week 1) is “None”; in series [2] (in mono- and di-glyceride of caprylic/capric acid, stress condition (50° C., 95% RH), Week 2), “None”; in series [2] (in mono- and di-glyceride of caprylic/capric acid, stress condition (50° C., 95% RH), Week 3), “None”; in series [2] (in propylene glycol monolaurate, accelerated condition (40° C., 75% RH), Week 4), “not generated and None”; in series [2] (in propylene glycol monolaurate, stress condition (50° C., 95% RH), Week 1), “None”; in series [2] (in propylene glycol monolaurate, stress condition (50° C., 95% RH), Week 2) it was “None”. In addition, in series [2] (in propylene glycol monolaurate, stress condition (50° C., 95% RH), Week 3), the “percentage of degradation products with respect to dutasteride” value is listed as “None”.
